The target in one data set is T1, PXR-LBD-L10-SRC (Homo sapiens, UniProt O75469).
T1 sequence (O75469 with tags, fused parts or gaps): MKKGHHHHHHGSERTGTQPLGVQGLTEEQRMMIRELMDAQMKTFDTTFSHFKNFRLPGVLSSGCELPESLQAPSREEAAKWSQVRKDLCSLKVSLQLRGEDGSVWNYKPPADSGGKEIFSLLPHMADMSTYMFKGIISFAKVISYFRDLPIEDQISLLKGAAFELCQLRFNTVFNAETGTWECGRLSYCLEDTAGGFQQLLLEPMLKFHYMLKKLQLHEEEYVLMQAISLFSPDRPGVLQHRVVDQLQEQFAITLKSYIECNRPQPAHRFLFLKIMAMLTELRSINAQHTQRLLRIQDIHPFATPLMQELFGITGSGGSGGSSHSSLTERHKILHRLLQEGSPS
As to the kind of experiment: Temperature-dependent circular dichroism, stabilization of PXR-LBD-L10-SRC. As to conditions: 25 uM compound. How it is done:
(§1) The CD is a function of wavelength.
(§2) PXR-LBD-L10-SRC was expressed and purified essentially as set forth above. […] Stabilization of PXR-LBD-L10-SRC in the presence of various substances was measured by temperature-dependent circular dichroism. PXR-LBD-L10-SRC was assayed under the following conditions:
(§3) Buffer: 25 mM Hepes, pH 7.9, 150 mM NaCl, 5% glycerol, 10 mM BME,
(§4) heating ramp at 2° C./min
(§5) temperature range: 30-80° C.
Background: Circular dichroism is the unequal absorption of left and right circularly polarised light.

Another data set addresses T2, PXR (Homo sapiens, UniProt O75469).
T2 sequence (O75469 1-434): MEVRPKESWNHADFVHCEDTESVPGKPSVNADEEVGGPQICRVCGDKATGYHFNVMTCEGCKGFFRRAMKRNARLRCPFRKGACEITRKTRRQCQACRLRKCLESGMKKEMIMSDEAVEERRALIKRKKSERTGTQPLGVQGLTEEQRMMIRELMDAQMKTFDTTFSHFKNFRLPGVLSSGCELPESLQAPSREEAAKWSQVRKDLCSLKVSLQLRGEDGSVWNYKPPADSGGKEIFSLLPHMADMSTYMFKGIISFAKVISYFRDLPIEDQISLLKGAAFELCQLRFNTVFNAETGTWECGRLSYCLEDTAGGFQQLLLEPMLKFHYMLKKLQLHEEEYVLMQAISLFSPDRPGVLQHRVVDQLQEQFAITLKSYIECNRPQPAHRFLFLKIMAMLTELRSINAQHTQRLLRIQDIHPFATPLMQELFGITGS
The note with it: Table 2; read-out: reported Kd; cited from earlier work.

Data set [1] addresses T3, human PXR-LBD-L10-SRC (SEQ ID NO: 24) (Homo sapiens, UniProt O75469).
T3 sequence (O75469 with tags, fused parts or gaps): T1 sequence (O75469 with tags, fused parts or gaps)
As to the kind of experiment: Ligand binding assay (radioligand, filter plate). As to conditions: conclusion from the radioligand binding tables.
Experimental: Chemilluminescence can be detected, for example, in a scintillation counter (Packard Top-counter). Specifically, the bound complex can be contacted with scintillant and then analyzed for the occurrence of scintillation.
After one hour of incubation at room temperature, the mixture was transferred to an imobilon multiScreen filter plate (Millipore). The plate was washed five times with PBS and dried under vacuum. The dried plate was added Opti-Fluor Scitillation cocktail before counting in a Parkard Top-counter.

Another data set addresses T4, PXR (PXR-LBD-L10-SRC) (Homo sapiens, UniProt O75469).
T4 sequence (O75469 with tags, fused parts or gaps): T1 sequence (O75469 with tags, fused parts or gaps)
As to the kind of experiment: Temperature-dependent circular dichroism, stabilization of PXR-LBD-L10-SRC. As to conditions: human, pH 7.9. As to the method: as §1, §2, §3, §4, §5

What is called Kd is the concentration at which binding is half-saturated.

Consider `Clc1ccccc1C(c1ccccc1)(c1ccccc1)n1ccnc1` [Clotrimazole], for which the Tm at PXR-LBD-L10-SRC (2.5 μM protein, 225 nm, apo enzyme Tm 52.9 ± 0.05) was determined as 58.5 C. Moreover, the ΔTm on PXR-LBD-L10-SRC (vs PXR-LBD-L10-SRC apo enzyme) was 5.6 C. For the same molecule, the Kd on PXR-LBD-L10-SRC (from CD thermal denaturation) was 200 nM; on PXR it was 300 nM. Further, in data set [1], the “binding activity of PXR” value is reported as “significant”.
As to `O=C1C(CC[S+]([O-])c2ccccc2)C(=O)N(c2ccccc2)N1c1ccccc1` (stereo not drawn) [sulfopyrole], on PXR (PXR-LBD-L10-SRC), the ΔTm at 25 µM was determined as 2.3 °C.
